In the OligoGym collection:
Several values for one entry are separate records, joined by “and”; a condition that tells them apart may be missing. Identical values can stand only once. After the bases stand the sugars from the 5' end (letter, count) and the backbone: PS all phosphorothioate, else s phosphorothioate and o phosphodiester by linkage. Methylation of C is not given here. e = 2'-O-(2-methoxyethyl) (MOE); k = constrained ethyl (cEt); d = 2'-deoxy (DNA)

What was measured:
APOL1 = details: ASO
MALAT1 = details: ASO, A431, 0.005 µM

Row | Sequence | target mRNA inhibition (MALAT1) | also measured
1 | AAAGAACTCAAGTCAG (sugars k4 d9 k3, PS) | – | target mRNA inhibition (APOL1; A431, 0.25 µM): 61% and 82%; target mRNA inhibition (APOL1; A431, 1 µM): 83% and 90%
2 | AACACATCATTGGGTT (sugars k2 d4 e3 k2 d5, PS) | – | target mRNA inhibition (APOL1; A431, 2 µM): 43%
3 | AACACATCATTGGGTT (sugars k3 d4 k3 e1 d5, PS) | – | target mRNA inhibition (APOL1; A431, 2 µM): 58%
4 | AACTTTACCTCACCCT (sugars k4 d9 k3, PS) | – | target mRNA inhibition (APOL1; A431, 0.0625 µM): 35%; target mRNA inhibition (APOL1; A431, 0.25 µM): 68%; target mRNA inhibition (APOL1; A431, 1 µM): 88%
5 | AAGATTGGCTCTGGCT (sugars k2 d4 e3 k2 d5, PS) | – | target mRNA inhibition (APOL1; A431, 2 µM): 63%
6 | AAGATTGGCTCTGGCT (sugars kkddddkekekddddd, PS) | – | target mRNA inhibition (APOL1; A431, 2 µM): 37%
7 | AAGCTTTAAACTCAGG (sugars kkddddekekeddddd, PS) | – | target mRNA inhibition (APOL1; A431, 0.0156 µM): 20%; target mRNA inhibition (APOL1; A431, 0.0625 µM): 58%; target mRNA inhibition (APOL1; A431, 0.25 µM): 84%; target mRNA inhibition (APOL1; A431, 1 µM): 92%; target mRNA inhibition (APOL1; A431, 2 µM): 95%
8 | AAGCTTTAAACTCAGG (sugars kkkddddkekekdddd, PS) | – | target mRNA inhibition (APOL1; A431, 2 µM): 16%
9 | AAGGTTGTCCAGAGCT (sugars k4 d9 k3, PS) | – | target mRNA inhibition (APOL1; A431, 0.0625 µM): 28%; target mRNA inhibition (APOL1; A431, 0.25 µM): 27%; target mRNA inhibition (APOL1; A431, 1 µM): 65%
10 | AAGTATTGCCAGCTAA (sugars kekddddeekkddddd, PS) | – | target mRNA inhibition (APOL1; A431, 2 µM): 88%
11 | AAGTATTGCCAGCTAA (sugars kkddddekekeddddd, PS) | – | target mRNA inhibition (APOL1; A431, 2 µM): 49%
12 | AATATCAGAGTGTACC (sugars k4 d9 k3, PS) | – | target mRNA inhibition (APOL1; A431, 0.0625 µM): 51%; target mRNA inhibition (APOL1; A431, 0.25 µM): 73%; target mRNA inhibition (APOL1; A431, 1 µM): 84%
13 | AATTATGGAATTGCAG (sugars kdddddkekekddddd, PS) | – | target mRNA inhibition (APOL1; A431, 2 µM): 52%
14 | AATTCTATTAGAGGGC (sugars kkddddkekekddddd, PS) | – | target mRNA inhibition (APOL1; A431, 2 µM): 56%
15 | AATTTTATGGAACCTC (sugars k3 d10 k3, PS) | – | target mRNA inhibition (APOL1; A431, 0.0625 µM): 37%; target mRNA inhibition (APOL1; A431, 0.25 µM): 74%; target mRNA inhibition (APOL1; A431, 1 µM): 90%
16 | ACACATCATTGGGTTA (sugars kdddddkekekddddd, PS) | – | target mRNA inhibition (APOL1; A431, 2 µM): 47%
17 | ACACATCATTGGGTTA (sugars kekddddeekkddddd, PS) | – | target mRNA inhibition (APOL1; A431, 2 µM): 87%
18 | ACACATCATTGGGTTA (sugars kkddddekekeddddd, PS) | – | target mRNA inhibition (APOL1; A431, 2 µM): 64%
19 | ACACATCATTGGGTTA (sugars kkddddkdkdkddddd, PS) | – | target mRNA inhibition (APOL1; A431, 2 µM): 57%
20 | ACCCTCTTTATCCCCC (sugars k4 d9 k3, PS) | – | target mRNA inhibition (APOL1; A431, 0.0625 µM): 53% and 39%; target mRNA inhibition (APOL1; A431, 0.25 µM): 82% and 65%; target mRNA inhibition (APOL1; A431, 1 µM): 92% and 81%
21 | ACCCTTTTGGCACCTT (sugars k4 d9 k3, PS) | – | target mRNA inhibition (APOL1; A431, 0.0625 µM): 49%; target mRNA inhibition (APOL1; A431, 0.25 µM): 79% and 76%; target mRNA inhibition (APOL1; A431, 1 µM): 92% and 89%
22 | ACGCAATGCTGACTTG (sugars kdddddkekekddddd, PS) | – | target mRNA inhibition (APOL1; A431, 2 µM): 71%
23 | ACGCAATGCTGACTTG (sugars kkdddddkekeddddd, PS) | – | target mRNA inhibition (APOL1; A431, 2 µM): 89%
24 | ACGCAATGCTGACTTG (sugars kkddddkdkdkddddd, PS) | – | target mRNA inhibition (APOL1; A431, 2 µM): 85%
25 | ACGCAATGCTGACTTG (sugars kkkddddkekeddddd, PS) | – | target mRNA inhibition (APOL1; A431, 2 µM): 87%
26 | ACGCAATGCTGACTTG (sugars kkkddddkekekdddd, PS) | – | target mRNA inhibition (APOL1; A431, 2 µM): 71%

Row | Sequence | target mRNA inhibition (MALAT1) | also measured
27 | ACTTCTGTTAGATACA (sugars k4 d9 k3, PS) | – | target mRNA inhibition (APOL1; A431, 0.0625 µM): 38%; target mRNA inhibition (APOL1; A431, 0.25 µM): 73%; target mRNA inhibition (APOL1; A431, 1 µM): 90%
28 | ACTTTACATGCACGAT (sugars kkdddddddddekeke, PS) | – | target mRNA inhibition (APOL1; A431, 0.0156 µM): 8%; target mRNA inhibition (APOL1; A431, 0.0625 µM): 25%; target mRNA inhibition (APOL1; A431, 0.25 µM): 58%; target mRNA inhibition (APOL1; A431, 1 µM): 84%
29 | ACTTTATACCAGTGTC (sugars k3 d4 k3 e1 d5, PS) | – | target mRNA inhibition (APOL1; A431, 2 µM): 58%
30 | TGAACCAAAGCTGCAC (sugars k3 d10 k3, PS) | 2% | –
31 | TGAACCGGAGCAGGAA (sugars k3 d10 k3, PS) | 5% | –
32 | TGACACTTTCCTTGCC (sugars k3 d10 k3, PS) | 66% and 46% | –
33 | TGAGGCAAACGAAACA (sugars k3 d10 k3, PS) | 16% | –
34 | TGAGGCAAGTCCTCAT (sugars k3 d10 k3, PS) | 5% | –
35 | TGAGTATAAGCCTGAA (sugars k3 d10 k3, PS) | 25% | –
36 | TGATCTGCGGCCCCCC (sugars k3 d10 k3, PS) | -50% | –
37 | TGATTTTAAGGTTGCA (sugars k3 d10 k3, PS) | 70% and 67% | –
38 | TGCAATACTGCAGATG (sugars k3 d10 k3, PS) | 20% | –
39 | TGCAGGGACGGTTGAG (sugars k3 d10 k3, PS) | -22% | –
40 | TGCAGTCCTGCGACTT (sugars k3 d10 k3, PS) | 15% | –
41 | TGCAGTTTCTATAGTA (sugars k3 d10 k3, PS) | 9% | –
42 | TGCCAACAGCACAGCG (sugars k3 d10 k3, PS) | 1% | –
43 | TGCCATCTACTATTTC (sugars k3 d10 k3, PS) | 19% | –
44 | TGCCTACCGCACAGCT (sugars k3 d10 k3, PS) | 19% | –
45 | TGCGACTTGCTCCCAA (sugars k3 d10 k3, PS) | -13% | –
46 | TGCGGCCCCCCAGTTG (sugars k3 d10 k3, PS) | -6% | –
47 | TGCTAGCTTGGCCAAG (sugars k3 d10 k3, PS) | 16% | –
48 | TGCTAGTCCTCAGGAT (sugars k3 d10 k3, PS) | 19% | –
49 | TGCTCCCCGCCTGAGC (sugars k3 d10 k3, PS) | 24% | –
50 | TGCTTATTCCCCAATG (sugars k3 d10 k3, PS) | 52% | –
51 | TGCTTGGGAAATCTTA (sugars k3 d10 k3, PS) | 23% | –
52 | TGGAAACCAGGAGTGC (sugars k3 d10 k3, PS) | 14% | –

Row | Sequence | target mRNA inhibition (MALAT1) | also measured
53 | TGGAATCCTGTCTGCT (sugars k3 d10 k3, PS) | 17% | –
54 | TGGAGATCAGCTTCCG (sugars k3 d10 k3, PS) | 18% | –
55 | TGGCAAAATGGCGGAC (sugars k3 d10 k3, PS) | 19% | –
56 | TGGCATCAAGGCACTG (sugars k3 d10 k3, PS) | 49% | –
57 | TGGTTTTAATACCCTT (sugars k3 d10 k3, PS) | 11% | –
58 | TGTATTAATCTCTATC (sugars k3 d10 k3, PS) | 41% | –
59 | TGTTAACAGCTGCCTG (sugars k3 d10 k3, PS) | 39% | –
60 | TTAAAAGATCGCCTTC (sugars k3 d10 k3, PS) | 43% | –
61 | TTAAAGTAGACCAACT (sugars k3 d10 k3, PS) | 27% | –
62 | TTAAAGTGTGATAGTT (sugars k3 d10 k3, PS) | 6% | –
63 | TTAAGAGCTGCTATAA (sugars k3 d10 k3, PS) | 6% | –
64 | TTAAGTTGGTAATTAC (sugars k3 d10 k3, PS) | -6% | –
65 | TTAATCATACTCCAGT (sugars k3 d10 k3, PS) | 19% | –
66 | TTACCCCAACTAAACA (sugars k3 d10 k3, PS) | -4% | –
67 | TTACCTAAACCCACCC (sugars k3 d10 k3, PS) | 38% | –
68 | TTACGCAACTGAGCCC (sugars k3 d10 k3, PS) | 11% | –
69 | TTACTTGCCAACTTGG (sugars k3 d10 k3, PS) | 70% and 68% | –
70 | TTAGGATTCTAGACAG (sugars k3 d10 k3, PS) | 43% | –
71 | TTAGGTATGAGCTTCA (sugars k3 d10 k3, PS) | 18% | –
72 | TTAGTTGGCATCAAGG (sugars k3 d10 k3, PS) | 74% and 70% | –
73 | TTATACATCAAGGATG (sugars k3 d10 k3, PS) | 4% | –
74 | TTATAGACCCCTGACT (sugars k3 d10 k3, PS) | 10% | –
75 | TTATCCTGATATTGGA (sugars k3 d10 k3, PS) | -12% | –
76 | TTATTAAGAGCTGCTA (sugars k3 d10 k3, PS) | 27% and 44% | –
77 | TTCAATCACAAATACG (sugars k3 d10 k3, PS) | 19% | –
78 | TTCACCAAATCGCACT (sugars k3 d10 k3, PS) | 29% | –

Row | Sequence | target mRNA inhibition (MALAT1) | also measured
79 | TTCACCAAGGAGCTGT (sugars k3 d10 k3, PS) | 37% | –
80 | TTCAGACCTTCTGAAC (sugars k3 d10 k3, PS) | -8% | –
81 | TTCCAGGATTAATGTA (sugars k3 d10 k3, PS) | 37% | –
82 | TTCCATTACGCAACTG (sugars k3 d10 k3, PS) | -21% | –
83 | TTCCCATAATTGTAGT (sugars k3 d10 k3, PS) | 18% | –
84 | TTCGAGAAATCGGAGC (sugars k3 d10 k3, PS) | -11% | –
85 | TTCGGATGCTTCACTC (sugars k3 d10 k3, PS) | 48% | –
86 | TTCGGCTTCTTTTATT (sugars k3 d10 k3, PS) | 44% | –
87 | TTCGGTTTAATCTCTT (sugars k3 d10 k3, PS) | 94% | –
88 | TTCTAACTTCTGCACC (sugars k3 d10 k3, PS) | 33% | –
89 | TTCTAATAGCAGCGGG (sugars k3 d10 k3, PS) | 59% and 40% | –
90 | TTCTTCGCCTTCCCGT (sugars k3 d10 k3, PS) | 66% and 49% | –
91 | TTGAATTACTTCCGTT (sugars k3 d10 k3, PS) | 54% and 35% | –
92 | TTGCCCTTCTATTGGT (sugars k3 d10 k3, PS) | 11% | –
93 | TTGCCTACCACTCTAA (sugars k3 d10 k3, PS) | 0% | –
94 | TTGGGAGTTACTTGCC (sugars k3 d10 k3, PS) | 70% and 73% | –
95 | TTGTCCTACTTTAAGC (sugars k3 d10 k3, PS) | 30% | –
96 | TTGTGAGGGAGGCAAA (sugars k3 d10 k3, PS) | 20% | –
97 | TTTACACCTCAGTACG (sugars k3 d10 k3, PS) | 35% | –
98 | TTTCCTCAAGCTCCGC (sugars k3 d10 k3, PS) | 54% | –
99 | TTTGAACCCCGTCCTG (sugars k3 d10 k3, PS) | 6% | –
100 | TTTTAAAAGATCGCCT (sugars k3 d10 k3, PS) | 33% | –
101 | TTTTTACCAACCACTC (sugars k3 d10 k3, PS) | 26% | –
